From patent US10392368B2, “Pyrazolo and triazolo bicyclic compounds as JAK kinase inhibitors” (THERAVANCE BIOPHARMA R&D IP, LLC, priority 2017, dated 2019) come the findings set out here.

One test concerns the target T1, JAK1 (Homo sapiens, UniProt P23458).
T1 construct: GST; purchased Life Technologies
The experiment in a line: Biochemical JAK1 kinase assay (LanthaScreen). The note with it: for Ki: read-out: JAK 1 (pKi) (converted). An outline of the steps:
(§1)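 GST-JAK + GFP-STAT1 peptide + cpd, 1 h preinc RT; ATP start, 1% DMSO, 1 h RT; stop 10 mM EDTA + 2 nM Tb-anti-pSTAT1; 1 h; TR-FRET 520/495. % inhib vs DMSO/background → IC50 (4-PL) → pKi (Cheng-Prusoff).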
(Time-resolved FRET reads energy transfer from a long-lived donor to a nearby acceptor.)

The target in the next test is T2, JAK2 (Homo sapiens, UniProt O60674).
T2 construct: GST; purchased Life Technologies
In words: Biochemical JAK2 kinase assay (LanthaScreen). Particulars: for Ki: read-out: JAK 2 (pKi) (converted). An outline of the steps: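 GST-tagged recombinant JAK2 pre-incubated 1 h at ambient temperature with compound and GFP-STAT1 peptide in HEPES pH 7.5/MgCl2 buffer, then ATP added for a 1 h reaction with 1% DMSO. TR-FRET read after EDTA and Tb-anti-pSTAT1 (pTyr701) addition; IC50 from 4-parameter fit, converted to pKi by Cheng-Prusoff.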

Another test deals with T3, Tyk2 (Homo sapiens, UniProt P29597).
T3 construct: GST; purchased Life Technologies
In words: Biochemical Tyk2 kinase assay (LanthaScreen). The note with it: for Ki: read-out: Tyk 2 (pKi) (converted). The method in brief: as §1

The subject of test [1] is IL-2 stimulated pSTAT5 in Tall-1 T cells. The experiment in a line: Cellular JAK3 potency assay: inhibition of IL-2 stimulated pSTAT5 in Tall-1 T cells. Particulars: for IC50: Homo sapiens, read-out: Tall-1 (pIC50) (converted). It is filed as cell-based, human. An outline of the steps:
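Tall-1 human T cells (45,000/well) in phenol red-free DMEM with 10% FBS were preincubated with compound 1 h at 37 °C, then stimulated with IL-2 (final 300 ng/ml) for 30 min. Lysate pSTAT5 read by AlphaLisa; IC50 from inhibition curves, reported as pIC50 (mean±SD).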

In a further test the target is T4, JAK3 (Homo sapiens, UniProt P52333).
T4 sequence (P52333 1-1124): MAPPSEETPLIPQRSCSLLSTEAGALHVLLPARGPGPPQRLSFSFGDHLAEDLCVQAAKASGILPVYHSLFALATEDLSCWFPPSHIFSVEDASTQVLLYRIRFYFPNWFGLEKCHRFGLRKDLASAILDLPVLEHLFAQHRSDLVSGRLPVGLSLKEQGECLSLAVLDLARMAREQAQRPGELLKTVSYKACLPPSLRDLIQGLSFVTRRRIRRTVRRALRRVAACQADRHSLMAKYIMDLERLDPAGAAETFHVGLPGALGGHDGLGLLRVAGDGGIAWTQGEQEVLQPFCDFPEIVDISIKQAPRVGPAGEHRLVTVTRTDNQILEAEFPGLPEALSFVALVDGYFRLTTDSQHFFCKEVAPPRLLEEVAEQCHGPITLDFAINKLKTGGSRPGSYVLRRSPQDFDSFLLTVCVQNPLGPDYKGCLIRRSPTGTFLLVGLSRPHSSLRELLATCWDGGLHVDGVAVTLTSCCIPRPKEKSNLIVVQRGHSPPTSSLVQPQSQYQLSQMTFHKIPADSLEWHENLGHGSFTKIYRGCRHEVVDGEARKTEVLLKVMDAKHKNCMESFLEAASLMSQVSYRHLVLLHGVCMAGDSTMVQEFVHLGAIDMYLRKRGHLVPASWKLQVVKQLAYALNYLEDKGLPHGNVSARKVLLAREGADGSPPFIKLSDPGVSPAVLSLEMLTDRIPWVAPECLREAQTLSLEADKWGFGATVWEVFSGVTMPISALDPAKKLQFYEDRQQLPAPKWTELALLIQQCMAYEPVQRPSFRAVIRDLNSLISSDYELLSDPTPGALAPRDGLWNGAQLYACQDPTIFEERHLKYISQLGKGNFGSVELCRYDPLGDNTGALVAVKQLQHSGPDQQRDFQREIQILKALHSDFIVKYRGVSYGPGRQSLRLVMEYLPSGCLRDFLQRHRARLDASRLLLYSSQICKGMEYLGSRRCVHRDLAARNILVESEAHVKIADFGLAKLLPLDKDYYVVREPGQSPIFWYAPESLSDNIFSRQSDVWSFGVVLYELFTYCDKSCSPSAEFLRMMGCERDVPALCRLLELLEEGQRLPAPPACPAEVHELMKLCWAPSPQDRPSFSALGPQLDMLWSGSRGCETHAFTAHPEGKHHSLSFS
In words: Biochemical JAK3 kinase assay (LanthaScreen). Particulars: for Ki: read-out: JAK 3 (pKi) (converted). On the set-up: GST; purchased Life Technologies. An outline of the steps:
as §1

The mark [2] stands for this setting: selectivity JAK3 over JAK1, difference of pKi.
The mark [3] stands for this setting: IL-2 stimulated pSTAT5 in Tall-1 T cells.
Where [4] appears, read: selectivity: difference of pKi JAK3 and pKi JAK1.
Setting [5] is: TALL-1, IL-2 stimulated pSTAT5, Tall-1 T cells.
Setting [6] is: TALL-1, IL-2 stimulated pSTAT5 in Tall-1 T cells.

Like-named read-outs stand apart in the source and are kept apart here. A value given as a limit tells only on which side of the number the result lay.

T2 sequence (O60674 whole entry): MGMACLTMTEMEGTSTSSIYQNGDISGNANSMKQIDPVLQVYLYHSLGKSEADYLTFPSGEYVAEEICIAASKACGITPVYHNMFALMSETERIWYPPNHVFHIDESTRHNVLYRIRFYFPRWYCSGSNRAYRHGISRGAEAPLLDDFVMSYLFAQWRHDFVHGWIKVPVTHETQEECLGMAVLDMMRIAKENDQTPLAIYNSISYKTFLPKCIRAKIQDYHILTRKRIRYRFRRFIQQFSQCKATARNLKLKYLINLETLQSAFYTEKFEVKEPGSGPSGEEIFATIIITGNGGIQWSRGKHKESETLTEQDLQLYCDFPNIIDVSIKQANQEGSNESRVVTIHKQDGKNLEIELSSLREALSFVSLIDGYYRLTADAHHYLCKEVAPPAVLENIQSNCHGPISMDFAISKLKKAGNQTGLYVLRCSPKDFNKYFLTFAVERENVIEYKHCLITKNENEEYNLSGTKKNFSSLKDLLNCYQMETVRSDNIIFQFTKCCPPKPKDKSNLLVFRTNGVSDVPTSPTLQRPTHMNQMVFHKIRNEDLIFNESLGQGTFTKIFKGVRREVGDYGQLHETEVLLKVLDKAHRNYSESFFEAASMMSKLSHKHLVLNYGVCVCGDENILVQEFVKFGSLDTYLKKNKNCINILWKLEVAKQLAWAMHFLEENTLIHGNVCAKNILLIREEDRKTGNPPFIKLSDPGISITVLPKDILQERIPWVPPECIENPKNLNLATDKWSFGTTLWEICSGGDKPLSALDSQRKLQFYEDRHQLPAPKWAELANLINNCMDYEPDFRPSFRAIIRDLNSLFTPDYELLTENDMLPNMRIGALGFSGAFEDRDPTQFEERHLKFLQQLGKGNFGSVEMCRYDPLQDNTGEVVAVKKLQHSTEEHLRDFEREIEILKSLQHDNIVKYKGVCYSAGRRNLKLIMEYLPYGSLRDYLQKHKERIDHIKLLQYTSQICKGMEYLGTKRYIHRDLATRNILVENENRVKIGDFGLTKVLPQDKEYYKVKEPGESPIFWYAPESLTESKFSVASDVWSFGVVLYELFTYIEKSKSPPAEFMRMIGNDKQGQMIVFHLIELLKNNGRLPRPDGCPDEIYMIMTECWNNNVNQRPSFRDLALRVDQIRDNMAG
T1 sequence (P23458 whole entry): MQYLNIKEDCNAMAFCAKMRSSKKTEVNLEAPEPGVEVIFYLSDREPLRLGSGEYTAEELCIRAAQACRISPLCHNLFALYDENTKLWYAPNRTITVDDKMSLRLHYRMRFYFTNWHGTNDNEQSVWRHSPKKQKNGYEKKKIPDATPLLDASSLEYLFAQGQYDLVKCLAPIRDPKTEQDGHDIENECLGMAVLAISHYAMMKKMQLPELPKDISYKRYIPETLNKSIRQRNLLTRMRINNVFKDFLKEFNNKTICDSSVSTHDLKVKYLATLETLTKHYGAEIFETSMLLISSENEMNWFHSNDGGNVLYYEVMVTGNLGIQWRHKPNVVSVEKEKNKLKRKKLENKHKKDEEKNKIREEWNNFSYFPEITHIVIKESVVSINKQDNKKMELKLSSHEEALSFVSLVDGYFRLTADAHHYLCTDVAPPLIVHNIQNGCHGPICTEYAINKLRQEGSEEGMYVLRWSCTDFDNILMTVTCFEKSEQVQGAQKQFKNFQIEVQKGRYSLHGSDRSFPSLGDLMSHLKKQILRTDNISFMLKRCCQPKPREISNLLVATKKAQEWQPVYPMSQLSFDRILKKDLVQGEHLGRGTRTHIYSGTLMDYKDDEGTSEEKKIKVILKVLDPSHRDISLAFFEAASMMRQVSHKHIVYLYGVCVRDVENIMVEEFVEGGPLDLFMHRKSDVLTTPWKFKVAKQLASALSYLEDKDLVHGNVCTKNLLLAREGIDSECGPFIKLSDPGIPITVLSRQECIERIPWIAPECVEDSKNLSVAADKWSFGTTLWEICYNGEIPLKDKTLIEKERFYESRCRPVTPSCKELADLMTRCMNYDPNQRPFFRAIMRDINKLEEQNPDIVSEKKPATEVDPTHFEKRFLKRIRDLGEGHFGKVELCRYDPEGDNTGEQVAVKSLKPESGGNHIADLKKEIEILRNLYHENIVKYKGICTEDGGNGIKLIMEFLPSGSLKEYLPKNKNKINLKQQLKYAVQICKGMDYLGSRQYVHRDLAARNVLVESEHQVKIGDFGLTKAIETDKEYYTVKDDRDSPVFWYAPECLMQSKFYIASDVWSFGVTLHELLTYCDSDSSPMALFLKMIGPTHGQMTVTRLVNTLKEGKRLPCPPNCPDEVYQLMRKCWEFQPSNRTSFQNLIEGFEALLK
T3 sequence (P29597 whole entry): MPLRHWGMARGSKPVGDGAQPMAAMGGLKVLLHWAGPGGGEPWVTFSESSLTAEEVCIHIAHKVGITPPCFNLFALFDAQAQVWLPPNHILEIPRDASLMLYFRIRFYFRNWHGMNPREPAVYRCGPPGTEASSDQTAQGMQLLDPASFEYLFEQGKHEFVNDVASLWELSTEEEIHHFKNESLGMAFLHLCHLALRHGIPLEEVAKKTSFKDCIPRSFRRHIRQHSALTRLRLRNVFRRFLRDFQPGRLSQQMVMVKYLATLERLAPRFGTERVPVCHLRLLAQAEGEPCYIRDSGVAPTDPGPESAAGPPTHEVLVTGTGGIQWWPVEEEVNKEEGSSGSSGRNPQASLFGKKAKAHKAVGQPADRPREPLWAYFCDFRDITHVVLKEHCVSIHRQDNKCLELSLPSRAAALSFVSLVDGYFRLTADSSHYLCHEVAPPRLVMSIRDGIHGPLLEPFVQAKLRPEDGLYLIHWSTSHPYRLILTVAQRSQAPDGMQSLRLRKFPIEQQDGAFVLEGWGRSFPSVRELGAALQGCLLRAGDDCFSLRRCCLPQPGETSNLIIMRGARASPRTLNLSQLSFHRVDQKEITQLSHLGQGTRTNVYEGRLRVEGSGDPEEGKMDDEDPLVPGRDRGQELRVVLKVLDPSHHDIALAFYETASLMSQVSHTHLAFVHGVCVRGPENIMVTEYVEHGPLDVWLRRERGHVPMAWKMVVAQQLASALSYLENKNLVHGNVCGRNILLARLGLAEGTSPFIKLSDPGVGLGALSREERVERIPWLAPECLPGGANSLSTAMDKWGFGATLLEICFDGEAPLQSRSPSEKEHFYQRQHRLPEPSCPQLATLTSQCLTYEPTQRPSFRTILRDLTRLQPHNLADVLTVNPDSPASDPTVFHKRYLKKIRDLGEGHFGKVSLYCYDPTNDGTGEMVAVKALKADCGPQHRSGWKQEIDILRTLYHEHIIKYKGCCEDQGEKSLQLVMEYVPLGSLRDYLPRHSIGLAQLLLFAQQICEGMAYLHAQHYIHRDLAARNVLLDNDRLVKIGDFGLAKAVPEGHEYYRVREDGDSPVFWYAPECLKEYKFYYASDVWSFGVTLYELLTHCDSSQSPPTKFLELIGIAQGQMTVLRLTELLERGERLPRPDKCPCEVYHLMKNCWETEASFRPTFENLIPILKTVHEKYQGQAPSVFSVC

As to `C=CC(=O)N1CCO[C@@H](C(=O)Nc2cc(-c3ccc(O)c(Cl)c3)nc3[nH]ncc23)C1` [Compound 13-22], the “JAK 1 (pKi)” value at JAK1 is recorded as “E (a pKi value of 7 or below (Ki of 100 nM or above))”. For the same compound, the “JAK 2 (pKi)” value at JAK2 was “E (a pKi value of 7 or below (Ki of 100 nM or above))”. The “Tyk 2 (pKi)” value at Tyk2 is “E (a pKi value of 7 or below (Ki of 100 nM or above))”. Further, the “Tall-1 (pIC50)” value in test [1] (IL-2 stimulated pSTAT5, Tall-1 T cells) was “B (a pIC50 value between 6.7 (included) and 7.5 (IC50 between 200 nM and 32 nM))”. The “JAK 3 (pKi)” value on JAK3 was “B (a pKi value between 9 and 10 (Ki between 1 nM and 0.1 nM))”. Further, at JAK3 (setting [2]), the “JAK3 (pKi)-JAK1 (pKi)” value is reported as “A (a value of 3 or above)”.

Consider `CN(C)C/C=C/C(=O)N1CC(Oc2cc(-c3ccc(O)c(Cl)c3)cc3[nH]ncc23)C1` [Compound 5-3], for which the “JAK 1 (pKi)” value on JAK1 was “E (a pKi value of 7 or below (Ki of 100 nM or above))”. For the same compound, at JAK2, the “JAK 2 (pKi)” value was “E (a pKi value of 7 or below (Ki of 100 nM or above))”. In addition, the “Tyk 2 (pKi)” value at Tyk2 is “E (a pKi value of 7 or below (Ki of 100 nM or above))”. Further, the “Tall-1 (pIC50)” value in test [1] (setting [3]) was “A (a pIC50 value≥7.5 (IC50≤32 nM))”. In addition, the “JAK 3 (pKi)” value on JAK3 is reported as “A (a pKi value≥10 (Ki≤0.1 nM))”. For the same compound, on JAK3 (setting [4]), the “JAK3 (pKi)-JAK1 (pKi)” value is “A (a value of 3 or above)”.

For the compound `C=CC(=O)N1CCOC[C@H]1C(=O)Nc1cc(-c2ccc(O)cc2)cc2[nH]ncc12` [Compound 12-63], the Ki is > 0.1 µM at JAK1, > 0.1 µM at JAK2, > 0.1 µM at Tyk2 and 0.0001 to 0.001 µM at JAK3. The IC50 in test [1] (setting [5]) was 0.0316 to 0.2 µM. Further, the “JAK3 (pKi)-JAK1 (pKi)” value at JAK3 (setting [2]) was “A (a value of 3 or above)”.

Turning to `CN(C)C/C=C/C(=O)N1CC(C#N)(COc2nc(-c3ccc(O)cc3)cc3[nH]ncc23)C1` [Compound 3-102], the Ki is > 0.1 µM at JAK1, > 0.1 µM at JAK2, > 0.1 µM at Tyk2 and 0.0001 to 0.001 µM at JAK3. The IC50 in test [1] (setting [6]) was 0.0316 to 0.2 µM. Further, the “JAK3 (pKi)-JAK1 (pKi)” value at JAK3 (setting [4]) is listed as “A (a value of 3 or above)”.

As for `C=CC(=O)N1CCC(Oc2cc(-c3ccc(O)c(F)c3)nc3[nH]ncc23)CC1` [Compound 6-18], the Ki at JAK1 is > 0.1 µM; on JAK2, > 0.1 µM; at Tyk2, > 0.1 µM; on JAK3 it was < 0.0001 µM. The IC50 in test [1] (setting [5]) was 0.0316 to 0.2 µM. In addition, the “JAK3 (pKi)-JAK1 (pKi)” value on JAK3 (setting [2]) is given as “A (a value of 3 or above)”.

As for `CSC1CCN(C/C=C/C(=O)N2CC(COc3cc(-c4ccc(O)cc4)cc4[nH]ncc34)C2)CC1` [Compound 3-131], the Ki at JAK1 was > 0.1 µM; at JAK2, 0.0001 to 0.001 µM; at Tyk2 it was > 0.1 µM; at JAK3, 0.0001 to 0.001 µM. Besides, the IC50 in test [1] (setting [6]) was < 0.0316 µM. Moreover, on JAK3 (setting [4]), the “JAK3 (pKi)-JAK1 (pKi)” value is “B (a value of 2.3 to 3)”.

In the case of `C=CC(=O)N1CC[C@H](COc2cc(-c3ccc(O)c(F)c3)cc3[nH]ncc23)C1` [Compound 2-5], on JAK1, the “JAK 1 (pKi)” value was “E (a pKi value of 7 or below (Ki of 100 nM or above))”. For the same compound, on JAK2, the “JAK 2 (pKi)” value is “D (a pKi value between 7 and 8 (Ki between 100 nM and 10 nM))”. The “Tyk 2 (pKi)” value at Tyk2 was “E (a pKi value of 7 or below (Ki of 100 nM or above))”. The “Tall-1 (pIC50)” value in test [1] (setting [3]) was “B (a pIC50 value between 6.7 (included) and 7.5 (IC50 between 200 nM and 32 nM))”. Further, on JAK3, the “JAK 3 (pKi)” value is “B (a pKi value between 9 and 10 (Ki between 1 nM and 0.1 nM))”. The “JAK3 (pKi)-JAK1 (pKi)” value at JAK3 (setting [4]) was “A (a value of 3 or above)”.

In the case of `C=CC(=O)N1CCC(C)(Oc2cc(-c3ccc(O)cc3)cc3[nH]ncc23)CC1` [Compound 6-3], the Ki is > 0.1 µM at JAK1, 0.01 to 0.1 µM on JAK2, > 0.1 µM on Tyk2 and 0.0001 to 0.001 µM at JAK3. The IC50 in test [1] (setting [5]) was < 0.0316 µM. The “JAK3 (pKi)-JAK1 (pKi)” value at JAK3 (setting [2]) is listed as “A (a value of 3 or above)”.
